In US7432303B2, “Chalcone and its analogs as agents for the inhibition of angiogenesis and related disease states” (James and Emory University, priority 1999, dated 2008):

System: SVR cells
Test: SVR cell assay: cell numbers counted at 48 hours, percent inhibition versus control
Type: cell-based, murine
Details: 10,000 SVR cells in 24 well dish, counted at 48 hours; for inhibition at 1 µg/mL / inhibition at 3 µg/mL / inhibition at 6 µg/mL / inhibition at 9 µg/mL: Mus musculus; for inhibition at 1 µg/mL / Percent Inhibition at a Specified Density (μg/ml): 1: 1 μg/ml; for inhibition at 1 µg/mL: read-out: Percent Inhibition at a Specified Density (μg/ml): 1; for inhibition at 3 µg/mL / Percent Inhibition at a Specified Density (μg/ml): 3: 3 μg/ml; for inhibition at 3 µg/mL: read-out: Percent Inhibition at a Specified Density (μg/ml): 3; for inhibition at 6 µg/mL / Percent Inhibition at a Specified Density (μg/ml): 6: 6 μg/ml; for inhibition at 6 µg/mL: read-out: Percent Inhibition at a Specified Density (μg/ml): 6; for Percent Inhibition at a Specified Density (μg/ml): 9 / inhibition at 9 µg/mL: 9 μg/ml; for inhibition at 9 µg/mL: read-out: Percent Inhibition at a Specified Density (μg/ml): 9
Procedure: In the case of testing the anti-angiogenic/anti-cancer activity of compounds according to the present invention, an assay based on SVR cells may be employed. […] The cell numbers are counted and compared against controls. Percent inhibition is readily determined from the data obtained.
10,000 SVR cells were seeded in a 24 well dish [Arbiser, et al., J. Am. […] The cell numbers were counted at 48 hours.

Row | SMILES | inhibition at 1 µg/mL [%] | inhibition at 3 µg/mL [%] | inhibition at 6 µg/mL [%] | Percent Inhibition at a Specified Density (μg/ml): 3 [%] | Percent Inhibition at a Specified Density (μg/ml): 6 [%] | Percent Inhibition at a Specified Density (μg/ml): 9 [%] | Percent Inhibition at a Specified Density (μg/ml): 1 [%] | inhibition at 9 µg/mL [%]
1 | O=C(/C=C/c1c(Cl)cccc1Cl)/C=C/c1c(Cl)cccc1Cl [Compound 73, 1,5-Bis(2,6-dichlorophenyl)-1E,4E-pentadien-3-one] | 60.7 | 87.1 | 90.4 | – | – | – | – | –
2 | O=C(/C=C/c1ccc(OCc2ccccc2)cc1)c1ccc(Cl)cc1 [Compound 25, 4-Benzyloxy-4′-chlorochalcone] | 25.6 | 4.4 | 62.9 | – | – | – | – | –
3 | O=C(/C=C/c1ccccc1)c1ccccc1 [Compound 1, Chalcone] | 71.6 | 92.8 | 94.4 | – | – | – | – | –
4 | O=C(C=Cc1ccc2ccccc2c1)c1ccc2ccccc2c1 [Compound 60, 1,3-Di(2-naphthyl)propenone] | – | – | – | 13.2 | 20.3 | 27.1 | – | –
5 | O=C1C(=C2C=CC=CN2)CCCC1=C1C=CC=CN1 [Compound 79, 2,6-Di(2-pyridylidene)cyclohexanone] | 88.3 | 92.9 | 96.7 | – | – | – | – | –
6 | O=C(/C=C/c1ccccc1)c1c(Cl)cccc1Cl [Compound 33, 2′,6′-Dichlorochalcone] | 2.23 | 51.1 | 88.7 | – | – | – | – | –
7 | O=C(/C=C/c1c(F)c(F)c(F)c(F)c1F)c1ccccc1 [Compound 35, 2,3,4,5,6-Pentafluorochalcone] | 0 | 0 | 0 | – | – | – | – | –
8 | CC(=O)C(=Cc1ccccc1)C(C)=O [Compound 9, 3-Benzylidene-2,4-pentanedione] | 48.3 | 72 | 82.7 | – | – | – | – | –
9 | CC(=O)c1cc2ccccc2oc1=O [Compound 13, 3-Acetylcoumarin, reference compound] | 26 | 4.9 | 13 | – | – | – | – | –
10 | O=C1CCCCC1=Cc1ccccc1 [Compound 7, 2-(Benzylidene)cyclohexanone] | 23 | 29.5 | 72.4 | – | – | – | – | –
11 | Cc1ccc(/C=C/C(=O)c2ccc(Cl)cc2)cc1 [Compound 29, 4′-Chloro-4-methylchalcone] | 29.9 | 40.2 | 58.5 | – | – | – | – | –
12 | O=C1C(=Cc2ccccc2)C(=O)c2ccccc21 [Compound 8, 2-(Benzylidene)-1,3-indanedione] | 91.1 | 14 | 34 | – | – | – | – | –
13 | O=C(C=Cc1ccccc1)c1ccc[nH]1 [Compound 49, 3-Phenyl-1-(2-pyrrolyl)propenone] | – | – | – | 11.4 | 19.4 | – | 8.3 | –
14 | COc1cccc(OC)c1C(=O)/C=C/c1c(Cl)cccc1Cl [Compound 40, 2,6-Dichloro-2′,6′-dimethoxychalcone] | 23.2 | 43.7 | 52.3 | – | – | – | – | –
15 | O=C(/C=C/c1ccco1)/C=C/c1ccco1 [Compound 74, 1,5-Di(2-furyl)-1E,4E-pentadien-3-one] | 0 | 9.3 | 56.5 | – | – | – | – | –
16 | O=C1C(=Cc2ccccc2)CCC1=Cc1ccccc1 [Compound 4, 2,5-(Dibenzylidene)cyclopentanone] | – | – | – | 23.8 | 38.6 | – | 19.6 | –
17 | O=C(C=Cc1cccnc1)c1ccccc1 [Compound 48, 1-Phenyl-3-(3-pyridyl)propenone] | – | – | – | 31.7 | 83.2 | – | 30.0 | –
18 | O=C(/C=C/c1c(Cl)cccc1Cl)c1ccccc1 [Compound 31, 2,6-Dichlorochalcone] | – | 92.9 | 97.5 | – | – | – | – | 97.9
19 | O=C1C(=Cc2ccccc2)CCCC1=Cc1ccccc1 [Compound 75, 2,6-Di(benzylidene)cyclohexanone] | – | 91.3 | 92.8 | – | – | – | – | 97.4
20 | N#Cc1coc2c(Cl)cc(Cl)cc2c1=O [Compound 16, 6,8-Dichloro-3-cyanochromone, reference compound] | 15.2 | 0 | 0 | – | – | – | – | –
21 | Cc1ccc(C(=O)/C=C/c2c(Cl)cccc2Cl)cc1 [Compound 28, 2,6-Dichloro-4′-methylchalcone] | 73.7 | 98.2 | 98.1 | – | – | – | – | –

Row | SMILES | inhibition at 1 µg/mL [%] | inhibition at 3 µg/mL [%] | inhibition at 6 µg/mL [%] | Percent Inhibition at a Specified Density (μg/ml): 3 [%] | Percent Inhibition at a Specified Density (μg/ml): 6 [%] | Percent Inhibition at a Specified Density (μg/ml): 9 [%] | Percent Inhibition at a Specified Density (μg/ml): 1 [%] | inhibition at 9 µg/mL [%]
22 | O=C(/C=C/c1ccccc1)c1c(F)c(F)c(F)c(F)c1F [Compound 36, 2′,3′,4′,5′,6′-Pentafluorochalcone] | 6.6 | 55.6 | 88.7 | – | – | – | – | –
23 | O=C(O)C=Cc1ccc(Br)cc1 [Compound 11, para-Bromocinnamic Acid, reference compound] | 18.2 | 3.5 | 0 | – | – | – | – | –
24 | O=C1C(=Cc2ccccc2)COc2ccccc21 [Compound 66, 3-Benzylidene-4-chromanone] | 12.3 | 23.8 | 54.3 | – | – | – | – | –
25 | O=C(C=Cc1ccccn1)c1ccccc1 [Compound 47, 1-Phenyl-3-(2-pyridyl)propenone] | – | – | – | 89.1 | 96.9 | – | 40.7 | –
26 | O=C(C=Cc1ccc2ccccc2c1)c1c2ccccc2cc2ccccc12 [Compound 54, 1-(9-Anthryl)-3-(2-naphthyl)propenone] | – | – | – | 57.3 | 48.1 | – | 52.5 | –
27 | O=C(C=Cc1ccc[nH]1)c1ccccc1 [Compound 50, 1-Phenyl-3-(2-pyrrolyl)propenone] | – | – | – | 21.5 | 0.0 | – | 19.0 | –
28 | O=C(C=Cc1ccccc1)c1ccc2ccccc2c1 [Compound 61, 1-(2-Naphthyl)-3-phenylpropenone] | – | – | – | 92.2 | 94.7 | 96.0 | – | –
29 | O=C(/C=C/c1c(F)cccc1Cl)/C=C/c1c(F)cccc1Cl [Compound 72, 1,5-Di(2-chloro-6-fluorophenyl)-1E,4E-pentadien-3-one] | 57 | 70.6 | 86.6 | – | – | – | – | –
30 | Cc1ccc(/C=C/C(=O)c2ccc(C)cc2)cc1 [Compound 20, 4,4′-Dimethylchalcone] | 36.6 | 67.3 | 89.5 | – | – | – | – | –
31 | O=C(/C=C/c1ccccc1)c1cccc(C(F)(F)F)c1 [Compound 18, 3′-(Trifluoromethyl)chalcone] | 42.2 | 87.4 | 96.9 | – | – | – | – | –
32 | COc1cccc(OC)c1/C=C/C(=O)c1ccccc1 [Compound 39, 2,6-Dimethoxychalcone] | 31.8 | 56.4 | 60.8 | – | – | – | – | –
33 | COc1cccc(OC)c1C(=O)/C=C/c1ccccc1 [Compound 38, 2′,6′-Dimethoxychalcone] | 25.8 | 39.8 | 63.5 | – | – | – | – | –
34 | COc1cccc(OC)c1/C=C/C(=O)c1c(OC)cccc1OC [Compound 37, 2,2′,6,6′-Tetramethoxychalcone] | 36.2 | 49.2 | 39.2 | – | – | – | – | –
35 | O=C(/C(Br)=C/c1ccccc1)c1ccccc1 [Compound 41, α-Bromo-Z-chalcone] | – | – | – | 75.7 | 79.8 | – | 57.2 | –
36 | Cc1ccc(C(=O)/C=C/c2ccc(Cl)cc2)cc1 [Compound 30, 4-Chloro-4′-methylchalcone] | 22.3 | 24.5 | 46.5 | – | – | – | – | –
37 | O=C(C=Cc1ccco1)c1ccco1 [Compound 43, 1,3-Bis(2-furyl)propenone] | – | – | – | 8.1 | 12.0 | – | 7.7 | –
38 | O=C1C(=Cc2cccc3ccccc23)CCc2ccccc21 [Compound 70, 2-(1-Naphthylidene)tetralone] | – | – | – | 15.9 | 23.6 | – | 18.7 | –
39 | O=C(C=Cc1ccccn1)c1ccccn1 [Compound 46, 1,3-Di(2-pyridyl)propenone] | – | – | – | 53.4 | 85.2 | – | 0.0 | –
40 | O=C(C=Cc1cccc2ccccc12)c1ccc2ccccc2c1 [Compound 63, 1-(2-Naphthyl)-3-(1-naphthyl)propenone] | – | – | – | 24.9 | 50.3 | – | 0.0 | –
41 | O=C(C=Cc1cccc2ccccc12)c1cccc2ccccc12 [Compound 65, 1,3-Di(1-naphthyl)propenone] | – | – | – | 55.5 | 60.3 | – | 12.0 | –
